Earlier results as cited in article PMC6256996, “Natural products as new antimitotic compounds for anticancer drug development” (Clinics, 2018).
Where two headings read alike, the source gives them in different places.

Assays:
HL60 = system: HL60; set-up: method as in doi:10.2174/1570180814666171012162557; details: for SI PBMC/HL-60: cytotoxic selectivity index, IC50 for PBMCs/cancer cell line
OVCAR-8 = system: OVCAR-8; set-up: method as in doi:10.2174/1570180814666171012162557; details: for SI PBMC/OVCAR-8: cytotoxic selectivity index, IC50 for PBMCs/cancer cell line
HCT-8 = system: HCT-8; set-up: method as in doi:10.2174/1570180814666171012162557; details: for SI PBMC/HCT-8: cytotoxic selectivity index, IC50 for PBMCs/cancer cell line
[1] = system: peripheral blood mononuclear cells (PBMCs); set-up: method as in doi:10.2174/1570180814666171012162557; details: 72h of treatment; mean±SEM
HL-60 cells [2] = system: HL-60 cells; set-up: method as in PMID 16316665; details: 3 hours
HL-60 cells [3] = system: HL-60 cells; set-up: method as in PMID 16316665; details: lowest treatment concentration (3.97 μmol.L^-1)
K562 cells = system: K562 cells; set-up: method as in PMID 15787450, doi:10.1007/s11418-006-0118-3; details: 48-hour incubation
HL-60 cells [4] = system: HL-60 cells; set-up: method as in PMID 16316665

SMILES	IC50 (HL60; 72h of treatment, mean±SEM, read-out: HL60 (mean IC50±SEM)) [nM]	SI PBMC/HL-60 (HL60; 72h of treatment)	IC50 (OVCAR-8; 72h of treatment, mean±SEM, read-out: OVCAR-8 (mean IC50±SEM)) [nM]	SI PBMC/OVCAR-8 (OVCAR-8; 72h of treatment)	IC50 (HCT-8; 72h of treatment, mean±SEM, read-out: HCT-8 (mean IC50±SEM)) [nM]	SI PBMC/HCT-8 (HCT-8; 72h of treatment)	IC50 [1] [nM]	Inhibition of BrdU incorporation during the S phase (HL-60 cells [2]; 3.97 μmol.L^-1) [%]	Inhibition of BrdU incorporation during the S phase (HL-60 cells [2]; 7.95 μmol.L^-1) [%]	Inhibition of BrdU incorporation during the S phase (HL-60 cells [2]; 15.9 μmol.L^-1) [%]	HL-60 cell population with depolarized mitochondria (HL-60 cells [3]) [%]	IC50, proliferation of K562 cells (K562 cells) [µg/mL]	Cells with DNA fragmentation (HL-60 cells [4]; HL-60 cells permeabilized with Triton X-100, 24-hour treatment, 3.97, 7.95 and 15.9 μmol.L^-1) [%]	Cell cycle arrest (DNA content) (HL-60 cells [4]; HL-60 cells, 15.9 μmol.L^-1)	Membrane damage (HL-60 cells [4]; HL-60 cells, 24-hour treatment, 3.97, 7.95 and 15.9 μmol.L^-1)	IC50 (HL60; read-out: IC50 in HL-60 tumor cell line) [nM]	IC50 (OVCAR-8; read-out: IC50 in OVCAR-8 tumor cell line) [nM]	IC50 (HCT-8; read-out: IC50 in HCT-8 tumor cell line) [nM]
COc1cc(C(=O)N/N=C/c2ccccc2)cc(OC)c1OC [LASSBio-1586]	290 ± 1.2	4.60	290 ± 40	4.60	450 ± 81	3.0	1340 ± 65											
COc1ccc2c(c1)O[C@@H]1c3cc(OC)c(OC)cc3OC[C@H]21 [(+)2,3,9-trimethoxypterocarpan, (+)2,3,9-Trimethoxypterocarpan]								37	38	56	38.6	0.8	~50	arrested at the G2/M phase transition	no significant membrane damage			
COc1cc(C(=O)N/N=C/c2cc3ccccc3s2)cc(OC)c1OC [LASSBio-1920]		333.30		11.11		20.0	100 ± 11									0.3	9	5
COc1ccc(/C=C\c2cc(OC)c(OC)c(OC)c2)cc1O [CA-4, combretastatin A-4, reference compound]		1.45		6.40		0.60	3.2											
